Earlier results in patent US6794347B2, “Process of making gel detergent compositions” (Unilever Home & Personal Care USA a division of Conopco, …, priority 2002, dated 2004).
Like-named read-outs stand apart in the source and are kept apart here.

CCCCCCCCCCCCCCCC(=O)O [Fatty acid chain length 16]
Measured pKa value (Cited from Langmuir, Vol 16, pp 172-177, 2000): 8.6˜8.8 | Measured pKa value (Cited from Proc. R. Soc. London, A133, 140, 1931): 8.5
